Article PMC10610188, “Structure–Activity Relationship Studies of Chalcones and Diarylpentanoids with Antitumor Activity: Potency and Selectivity Optimization” (Pharmaceuticals, 2023)

Key:
HCT116 p53^+/+ cells = test: SRB growth inhibition assay in HCT116 p53+/+ cells; type: cell-based, human; details: SRB assay, 48 h of treatment
Protocol: (§1) To study the in vitro antitumor potential of chalcone CM-M345 (1) and diarylpentanoid BP-C4 (2) analogues, the sulforhodamine B (SRB) assay was used to evaluate the antiproliferative activity in human colorectal HCT116 cancer cells. To assess their cytotoxicity toward normal cells, the antiproliferative effect of these compounds was also tested in human fibroblasts HFF-1 cells. In order to confirm if inhibition of proliferation was associated with p53 activation in HCT116 p53^+/+ cells, all compounds were also tested in HCT116 cells in which p53 was knocked out (HCT116 p53^−/−) and the selective index was calculated and compared to the compounds CM-M345 (1) and BP-C4 (2), for which p53-dependent antiproliferative activity was previously reported by our research group (Table 1).
(§2) The colorectal adenocarcinoma HCT116 cells (HCT116 p53^+/+) and its p53-null isogenic derivative (HCT116 p53^−/−) were given by Prof. Vogelstein (The Johns Hopkins Kimmel Cancer Center, Baltimore, USA); the normal human fibroblasts HFF-1 cell lines were from ATCC (Rockville, MD, USA). Human cells were cultured in RPMI-1640 with UltraGlutamine (Lonza, VWR, Portugal) with 10% FBS (Gibco, Alfagene, Portugal) at 37 °C with 5% CO2. The SH-SY5Y cells were cultured in DMEM/F-12 (Lonza) and 10% FBS and 2mM L-glutamine (Gibco). The cells were incubated at 37 °C in a humidified atmosphere of 5% CO2. Mycoplasma was routinely checked using the MycoAlert™ PLUS kit (Lonza). […]

HCT116 p53^−/− cells = test: SRB growth inhibition assay in HCT116 p53-/- cells; type: cell-based, human; details: for SI1: Selective index 1: GI50 of HCT116 p53^−/−/GI50 of HCT116 p53^+/+; for GI50: Homo sapiens, HCT-116, SRB assay, 48 h of treatment
Protocol: as §1, §2

HFF-1 cells = test: SRB growth inhibition assay in normal fibroblasts HFF-1; type: cell-based, human; details: for SI2: Selective index 2: GI50 of HFF-1/GI50 of HCT116 p53^+/+; for GI50: Homo sapiens, HFF-1, SRB assay, 48 h of treatment
Protocol: as §1, §2

| SMILES | GI50 (HCT116 p53^+/+ cells; Homo sapiens, HCT-116, 48 h) [µM] | SI1: Selective index 1 (HCT116 p53^−/− cells) | GI50 (HCT116 p53^−/− cells) [µM] | SI2: Selective index 2 (HFF-1 cells) | GI50 (HFF-1 cells) [µM] | melting point [°C] | GI50 (HCT116 p53^+/+ cells; Homo sapiens, HCT-116) [µM] | GI50 (HCT116 p53^+/+ cells) [µM] |
| --- | --- | --- | --- | --- | --- | --- | --- | --- |
| COc1cc(/C=C2\Cc3ccccc3C2=O)cc(OC)c1OC [Compound 3] | 4.6 ± 0.3 | 0.70 | 3.2 ± 0.47 | 1.76 | 8.1 ± 0.1 | 160 to 163 |  |  |
| COc1cc(/C=C2\Cc3c(ccc(OC)c3OC)C2=O)cc(OC)c1OC [Compound 4, (E)-2-(3,4,5-trimethoxybenzylidene)-4,5-dimethoxy-2,3-dihydro-1H-inden-1-one] |  | 0.82 | 3.1 ± 0.22 | 1.34 | 5.1 ± 0.9 | 165 to 168 | 3.8 ± 0.32 |  |
| COc1cc2c(cc1OC)C(=O)/C(=C/c1cc(OC)c(OC)c(OC)c1)C2 [Compound 5] | 6.1 ± 0.12 | 0.67 | 4.1 ± 0.36 | 0.52 | 3.2 ± 0.07 | 156 to 159 |  |  |
| O=C1/C(=C/c2ccc(Cl)cc2)Cc2ccccc21 [Compound 6] | 21.5 to 30 |  | > 30 |  | > 30 | 179 to 181 |  | 21.5 ± 1.19 |
| COc1ccc2c(c1OC)C/C(=C\c1ccc(Cl)cc1)C2=O [Compound 7, (E)-2-(4-chlorobenzylidene)-4,5-dimethoxy-2,3-dihydro-1H-inden-1-one] | 7.4 ± 0.56 | 0.61 | 4.5 ± 0.13 | 0.64 | 4.7 ± 0.5 | 206 to 209 |  |  |
| COc1cc2c(cc1OC)C(=O)/C(=C/c1ccc(Cl)cc1)C2 [Compound 8] |  | 0.60 | 4.5 ± 0.28 | 0.68 | 5.1 ± 0.9 |  | 7.5 ± 0.45 |  |
| COc1cc(/C=C2\CCc3ccccc3C2=O)cc(OC)c1OC [Compound 9] | 5.9 ± 1.28 | 1.32 | 7.8 ± 0.9 | 0.93 | 5.5 ± 0.03 |  |  |  |
| COc1cc2c(cc1OC)C(=O)/C(=C/c1cc(OC)c(OC)c(OC)c1)CC2 [Compound 10, (E)-2-(3,4,5-trimethoxybenzylidene)-6,7-dimethoxy-3,4-dihydronaphthalen-1(2H)-one] | 6.7 to 8.6 | 0.73 | 2.9 ± 0.11 | 1.35 | 5.4 ± 0.1 | 145 to 147 |  | 4 ± 0.23 |
| COc1cc(/C=C2\COc3ccccc3C2=O)cc(OC)c1OC [Compound 11] | 6.7 to 8.6 | 0.97 | 6.1 ± 1 | 1.32 | 8.3 ± 1.4 | 109 to 111 |  | 6.3 ± 2.18 |
| COc1cc(/C=C2\CSc3ccccc3C2=O)cc(OC)c1OC [Compound 12, (Z)-3-(3,4,5-trimethoxybenzylidene)thiochroman-4-one] | 5.7 ± 0.51 |  | 3.9 ± 0.26 |  | 6.7 ± 0.4 |  |  |  |
| O=C1/C(=C/c2ccc(Cl)cc2)CCc2ccccc21 [Compound 13] | 21.5 to 30 |  | > 30 |  | > 30 |  |  | > 30 |
| COc1cc2c(cc1OC)C(=O)/C(=C/c1ccc(Cl)cc1)CC2 [Compound 14, (E)-2-(4-chlorobenzylidene)-6,7-dimethoxy-3,4-dihydronaphthalen-1(2H)-one] | 6.7 ± 0.21 |  | 4.3 ± 0.15 |  | 7.7 ± 0.2 |  |  |  |
| O=C1/C(=C/c2ccc(Cl)cc2)COc2ccccc21 [Compound 15] | 8.6 ± 0.5 | 0.62 | 5.29 ± 0.19 | 0.49 | 4.25 ± 0.32 |  |  |  |
| O=C1/C(=C/c2ccc(Cl)cc2)CC/C1=C\c1ccc(Cl)cc1 [Compound 18] | > 30 |  | > 30 |  | > 30 |  |  |  |
| O=C1/C(=C/c2ccc(Cl)cc2)CCC/C1=C\c1ccc(Cl)cc1 [Compound 19] | 3.1 ± 0.1 | 0.95 | 2.95 ± 0.15 | 4.55 | 14.1 ± 0.12 |  |  |  |
| O=C1/C(=C/c2ccc(Cl)cc2)CSC/C1=C\c1ccc(Cl)cc1 [Compound 20] | 1.13 ± 0.17 | 0.93 | 1.05 ± 0.05 | 2.01 | 2.27 ± 0.09 | 126 to 128 |  |  |
| COc1cc(/C=C/C(=O)/C=C/c2cc(OC)c(OC)c(OC)c2)cc(OC)c1OC [Compound 21] | > 30 |  | > 30 |  | > 30 |  |  |  |
| COc1cc(/C=C2\CC/C(=C\c3cc(OC)c(OC)c(OC)c3)C2=O)cc(OC)c1OC [Compound 22] | 0.09 ± 0.03 | 0.78 | 0.07 ± 0.01 | 1.50 | 0.135 ± 0.004 |  |  |  |
| COc1cc(/C=C2\CCC/C(=C\c3cc(OC)c(OC)c(OC)c3)C2=O)cc(OC)c1OC [Compound 23] | 2.3 ± 0.03 | 0.24 | 0.56 ± 0.07 | 0.72 | 1.65 ± 0.04 |  |  |  |
| COc1cc(/C=C2\CSC/C(=C\c3cc(OC)c(OC)c(OC)c3)C2=O)cc(OC)c1OC [Compound 24] | 0.31 ± 0.03 | 1.84 | 0.57 ± 0.009 | 0.74 | 0.23 ± 0.02 | 219 to 222 |  |  |
| CCCc1c(OC)ccc(C(=O)/C=C/c2cc(OC)c(OC)c(OC)c2)c1OCC=C(C)C [Compound 26, (E)-1-(4-methoxy-2-((3-methylbut-2-en-1-yl)oxy)-3-propylphenyl)-3-(3,4,5-trimethoxyphenyl)prop-2-en-1-one] | 6 ± 0.93 | 0.77 | 4.6 ± 1.7 | 1.22 | 7.3 ± 2 | 100 to 103 |  |  |
| CCCc1c(OC)ccc2c(=O)cc(-c3cc(OC)c(OC)c(OC)c3)oc12 [Compound 27, 7-methoxy-8-propyl-2-(3,4,5-trimethoxyphenyl)-4H-chromen-4-one] | > 30 |  | > 30 |  | > 30 | 153 to 155 |  |  |
| CCCc1c(OC)ccc(C(=O)CCc2cc(OC)c(OC)c(OC)c2)c1O [Compound 29, 1-(2-hydroxy-4-methoxy-3-propylphenyl)-3-(3,4,5-trimethoxyphenyl)propan-1-one] | 18.7 ± 2.19 | 0.60 | 11.2 ± 5.3 | 1.18 | 22.1 ± 7.2 |  |  |  |
| CCCc1c(OC)ccc(C(=O)/C=C/c2ccc(N(C)C)cc2)c1O [Compound 35, (E)-3-(4-(dimethylamino)phenyl)-1-(2-hydroxy-4-methoxy-3-propylphenyl)prop-2-en-1-one] |  | 1.52 | 16.3 ± 2.6 | 1.31 | 14 ± 3.6 | 126 to 128 |  |  |
| CC(C)=CCOc1ccccc1/C=C1\COC/C(=C\c2ccccc2OCC=C(C)C)C1=O [Compound 38, 3,5-bis((E)-2-((3-methylbut-2-en-1-yl)oxy)benzylidene)tetrahydro-4H-pyran-4-one] | > 30 |  | > 30 |  | > 30 |  |  |  |
| COc1cc([C@@H]2c3cc4c(cc3[C@@H](O[C@@H]3O[C@@H]5CO[C@@H](C)O[C@H]5[C@H](O)[C@H]3O)[C@H]3COC(=O)[C@H]23)OCO4)cc(OC)c1O [Etoposide, reference compound] | 0.71 |  |  |  | 0.35 |  |  |  |
